Laboratory results reported in PMC10939466, “A transferrin receptor targeting dual-modal MR/NIR fluorescent imaging probe for glioblastoma diagnosis” (Regenerative Biomaterials, 2024).
Square brackets hold non-standard residues; d marks the D form. Peptide text beside a SMILES is read from it.

Assays:
[1] = Cellular uptake of the peptides; type: cell-based
[2] = tested on: BBB model in vitro (bEnd.3 cells co-cultured with U87-MG cells); assay: Sodium fluorescein permeability of the in vitro BBB model; type: in vitro ADME; settings: transwell 3 µm pore, 0.33 cm^2, bEnd.3 upper / U87-MG lower chamber; NaFl 10 µg/mL; 30, 60, 90 min; 37°C; fluorescence 485/535 nm
Procedure: A primary BBB model using bEnd.3 cells in vitro was established to evaluate the penetration ability of ^DTHR-Cy7-PEG-DSPE-SPIONs. The inner side of a polycarbonate transwell (Millipore, USA) with a mean pore size of 3 µm and a surface area of 0.33 cm^2 was coated with collagen. After coating, the transwell was left to air dry for 30 min. Then, bEnd.3 cells (5 × 10^4 cells per well) were seeded into the upper chamber of a 24-well transwell plate. After 48 h, 1 × 10^5 U87-MG cells were seeded in the lower chamber of each well. Both cells were co-cultured for 1 week.
The endothelial permeability coefficient of sodium fluorescein (NaFl) was used to evaluate the function of BBB model in vitro, as previously described. In brief, 200 µL NaFl solution (10 µg/mL) and 900 µL PBS were added to the upper and lower chambers of the BBB models, respectively. And then cultured in a 5% CO2 atmosphere at 37°C. Following incubation periods of 30, 60 and 90 min, 100 µL samples from the lower chambers were transferred to a new 96-well plate. […] Finally, the relative fluorescence intensity of the samples was measured using a multi-detector monochromator microplate reader (485/535 nm), with NaFl concentration deduced from a standard curve. The apparent permeability coefficient (Papp) was calculated using the formula: Papp=dQ/dt×1/(A×C0). […]

SMILES	cellular uptake compared to THR [1]	Papp of NaFl, BBB model [2]
CSCC[C@@H](NC(=O)[C@@H](Cc1c[nH]c2ccccc12)NC(=O)[C@@H](CO)NC(=O)[C@H]1CCCN1C(=O)[C@H](NC(=O)[C@@H](Cc1c[nH]c2ccccc12)NC(=O)[C@H]1CCCN1C(C)=O)C(C)C)C(=O)N1CCC[C@@H]1C(=O)N1CCC[C@@H]1C(=O)N[C@H](CCCNC(=N)N)C(=O)N[C@H](Cc1c[nH]cn1)C(=O)N[C@@H](C(=O)O)[C@H](C)O [^DTHR, Ac-pwvpswmpprht-COOH] (Ac-[dP][dW][dV][dP][dS][dW][dM][dP][dP][dR][dH][dT]-OH)	lower cellular uptake	
O=C([O-])c1ccccc1-c1c2ccc(=O)cc-2oc2cc([O-])ccc12.[Na+].[Na+] [NaFl, sodium fluorescein]		11.24 ± 0.73 ×10^−6 cm/s
